Where two headings read alike, the source gives them in different places.

The text below walks through data of paper PMC12037426, “Lipid Metabolism-Related Enzyme Inhibition and Antioxidant Potential of the Extracts and Phytochemical Compounds from Trachystemon orientalis (L.) D.Don” (Plant Foods for Human Nutrition (Dordrecht, Netherlands), 2025).

One data set deals with T1, Pancreatic lipase (PL) (Homo sapiens, UniProt P16233).
T1 sequence (P16233 17-465): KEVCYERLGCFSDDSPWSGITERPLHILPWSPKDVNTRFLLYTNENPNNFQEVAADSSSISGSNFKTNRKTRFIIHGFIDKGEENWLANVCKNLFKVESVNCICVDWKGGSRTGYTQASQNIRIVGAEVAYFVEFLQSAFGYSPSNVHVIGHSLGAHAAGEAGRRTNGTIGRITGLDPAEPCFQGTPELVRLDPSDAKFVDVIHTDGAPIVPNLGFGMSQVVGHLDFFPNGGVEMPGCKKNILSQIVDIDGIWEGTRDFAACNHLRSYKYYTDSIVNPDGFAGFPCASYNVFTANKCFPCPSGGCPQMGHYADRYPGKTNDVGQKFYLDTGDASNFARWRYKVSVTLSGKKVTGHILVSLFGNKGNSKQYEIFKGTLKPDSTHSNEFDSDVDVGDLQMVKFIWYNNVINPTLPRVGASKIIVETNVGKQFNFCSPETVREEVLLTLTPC
As to the kind of experiment: Pancreatic lipase (PL) inhibition, p-nitrophenyl butyrate substrate. The following applies: for IC50: mean ± SD of triplicate, read-out: Enzyme inhibitory activities IC50 ± SD, Pancreatic lipase (PL) (converted). Format: biochemical. On the procedure: PL inhibition was assessed utilizing p-nitrophenyl butyrate as a substrate. The extracts were diluted using a buffer solution (0.1 M Tris-HCl, pH 8.0) to achieve a final concentration range of 12.5-400 µg/mL. […] An enzyme solution (EC 3.1.1.3, 200 units/mL) and a substrate solution (10 mM) were formulated in a buffer solution.
The experimental procedure was structured in microplate wells A (90 µL enzyme solution, 5 µL substrate solution, 5 µL buffer solution), B (90 µL enzyme solution, 10 µL buffer solution), C (90 µL enzyme solution, 5 µL sample solution, 5 µL substrate solution), and D (90 µL enzyme solution, 5 µL sample solution, 5 µL buffer solution). Microplates were incubated at 37 °C for 15 minutes before to and following the addition of substrates. The absorbance values were measured at 405 nm, and the percentage of pancreatic lipase enzyme inhibition was calculated. All concentrations were conducted in triplicate.
% Pancreatic lipase inhibition = [(A-B)-(C-D)/(A-B)] × 100
The IC50 values of the samples on lipase were derived using the graph equation established by plotting the observed percentage of enzyme inhibition against the logarithm of the concentrations (ordinate and abscissa).

Another data set has as its system PL. The following applies: cited from earlier work.
For data set [1], the system named is hypercholesterolemic hamsters. The following applies: cited from earlier work.
In the next data set the test system is 3T3-L1 adipocytes. The following applies: cited from earlier work.
In data set [2] the test system is RAW264.7 macrophage cells. Details: method as in PMID 27514857. Particulars: cited from earlier work.
Details of data set [3]: method as in PMID 28122265. Particulars: cited from earlier work.
A short description of data set [4]: Ferric reducing antioxidant power (FRAP) assay. As to the method:
The Fe(II)-TPTZ complex, generated by the reduction of the TPTZ complex in the presence of antioxidants, has a blue colour and is measured at 595 nm. […] Absorbance measurements were recorded at 595 nm after 20 minutes at room temperature. […] FRAP values were reported as μM Trolox equivalents per gram of material.

Data set [5] can be described thus: Cupric-reducing antioxidant capacity (CUPRAC) assay. As to the method: CUPRAC assay was performed according to the modified protocol. Methanolic solutions of Trolox, utilized as a reference, were produced at varying concentrations (1000-62.5 μM). Subsequently, 1 mL of NH4CH3COO and 1 mL of CuCl2.2H2O and 1 of mL neocuproine (Nc) solutions were combined, followed by the addition of 0.5 mL of the sample solution (10 mg/mL) and 0.6 mL of distilled water (1.1-x) water into the mixture. Following the mixing of the tubes and incubation in darkness at ambient temperature for 30 minutes, the absorbance of the samples was measured at 450 nm. The antioxidant capacity of the samples was quantified as TEAC (μM) by comparison with Trolox, the reference chemical.

In data set [6] the test system is hypercholesterolemic rats. More on the design: method as in PMID 39615784. The following applies: 100 mg/kg, hypercholesterolemic rats on a high-fat diet; cited from earlier work.

As for `CC[C@H](CC[C@@H](C)[C@H]1CC[C@H]2[C@@H]3CC=C4C[C@@H](O)CC[C@]4(C)[C@H]3CC[C@]12C)C(C)C` [β-sitosterol], the IC50 at Pancreatic lipase (PL) is 101 µM. Moreover, the inhibition at 100 µg/mL on Pancreatic lipase (PL) (read-out: PL inhibition) amounted to 68.5%. For the same compound, the PL inhibition in the data set with PL (100 µg/mL) is 79.1 ± 11.3%; in the data set on PL (4 mg/mL), 60.67% ± 0.53; with PL (first value of two) it was 2.99 ± 0.80%; in the data set on PL (second value of two), 8.80 ± 4.15%. Also, the “cholesterol absorption and plasma cholesterol levels” value in data set [1] was “decrease cholesterol absorption and plasma cholesterol levels”. Also, the “adipogenesis (intracellular triglyceride content and lipid accumulation)” value in the data set on 3T3-L1 adipocytes is reported as “efficiently prevented adipogenesis”. Besides, in the data set with 3T3-L1 adipocytes, the cytotoxicity entry is “without including notable cytotoxicity”.

As to `O=C(O)C(O)Cc1ccc(O)c(O)c1` (stereo not shown) [Danshensu, 3,4-dihydroxyphenyl lactic acid], the “PL IC50” value in the data set with PL is 65.160 ± 4.443 mg/L. Moreover, the lipid accumulation result in data set [2] is “reduce lipid accumulation”. Besides, the radical scavenging ability entry in [3] was “equivalent to that of quercetin”.

Take `O=C(/C=C/c1ccc(O)c(O)c1)O[C@H](Cc1ccc(O)c(O)c1)C(=O)O` [Rosmarinic acid]: the IC50 at Pancreatic lipase (PL) is 134 µM; in the data set on PL (read-out: lipase inhibitory activity IC50), 62.8 ± 2.7 µM. The compound also showed an FRAP in data set [4] of 1274.400 ± 1.633 µM TEAC. Moreover, the “FRAP (iron reducing antioxidant power)” value in [4] (sample 10 mg/mL) was 1274.400 ± 1.633 µM Trolox equivalent/gram. In addition, in data set [5], the CUPRAC came to 1801.389 ± 5.500 µM TEAC. For the same compound, the “CUPRAC (copper reducing antioxidant power)” value in data set [5] (sample 10 mg/mL) is given as 1801.389 ± 5.500 µM Trolox equivalent/gram. In addition, the “PL inhibitory activity IC50” value with PL was 125.2 mg/L. In addition, the “lipase inhibitory activity IC50” value at PL is 49.421 ± 1.448 mg/L. In data set [6], the “cholesterol and triglyceride levels” value was “improve cholesterol and triglyceride levels comparably to simvastatin”. The radical scavenging ability entry in data set [3] is given as “equivalent to that of quercetin”.
